In patent EP0605261B1, “Use of a flavone derivative as taste modifier and a method of modifying taste” (SAN-EI GEN F.F.I., INC., priority 1992, dated 1994):

Assays:
Format in all cases: in vivo
[1] = Sensory test (limiting method): enhancing the sourness of acid sugar solution; parameters: key: (equivalent citric acid content / citric acid content with flavone) × 100; conditions: citric acid 1.000 (g), flavone derivative (I) 0.00001 (g), 8 panellers; for Value of enhancing the sourness Ascending system: ascending system (from low concentration); for Value of enhancing the sourness Descending system: descending system (from high concentration)
Protocol: Compounds 1 to 11 of the flavone derivative (I) were used as a taste modifier to prepare acid sugar solution having compositions as follows:
As a control, 21 types of acid sugar solutions are used. In the control, the flavone derivative (I) is removed from the above composition and the content of citric acid is varied from 1.000 g to 1.500 g by 0.025 g.
Sensory tests were carried out by 8 trained panellers in accordance with a limiting method described in the Hand Book of Sensory evaluation, edited by Research Committee of sensory evaluation, Union of Japanese Scientists and Engineers, p.398 (1973) in use of acid sugar solutions containing respective flavone derivatives (I) and another acid sugar solutions having a various content of citric acid.
As for the content of citric acid, two types sensory tests were conducted, one was an ascending system (testing from solution with low concentration) and another was a descending system (testing from solution with high concentration).
The sensory evaluation was made by a value of enhancing the sourness. The value of enhancing the sourness was calculated by the following formula based on the content of citric acid in acid sugar solutions with varied concentration of citric acid, which has an equivalent stimulation with an acid sugar solution containing the flavone derivative (I) Value of enhancing the sourness = (content of citric acid in acid sugar solution sensed as an equivalent stimulation/content of citric acid in acid sugar solution containing the flavone derivative (I)) x 100 [formula]

[2] = Sensory test: refreshness, its continuity and quality of taste (refreshing drink); conditions: 0.2 g flavor composition H (0.000001(g) Compound 11) vs G, 8 panellers
Protocol: Compound 11 of the flavone derivative (I) was used as a taste modifier. Refreshing drink containing the above flavor composition G (control) or H (containing the flavone derivative (I)) was prepared.
First, 10 g of fructose/glucose sugar solution, 0.1 g of citric acid (crystal), 0.2 g of the flavor composition G and 88.5 g of water were mixed to dissolve, followed by heating up to 93 °C, immediately transmitted to a bottle and sealed. Then, it was cooled in water, thereby preparing flavone derivative (I) free refreshing drink.
Alternatively, flavone derivative (I)-containing refreshing drink was prepared by the same method using the flavor composition H instead of the flavor composition G.
Sensory tests for obtained refreshing drink were carried out by 8 panellers comprised of 6 males and 2 females at the age from 20 to 40.

[3] = Sensory test: body and deliciousness (casing boiled fish paste); conditions: 0.0001 (g) Compound 11, 8 panellers
Protocol: Compound 11 of the flavone derivative (I) was used as a taste modifier. Ground fish meat, salt, starch, water and the flavone derivative (I) were mixed. In accordance with a general method, casing boiled fish paste containing the flavone derivative (I) was prepared. Alternatively, flavone derivative (I) free casing boiled fish paste was prepared by the same method as a control.
Sensory tests for obtained casing boiled fish paste were conducted by 8 panellers comprised of 6 males and 2 females at the age from 20 to 40.

[4] = Sensory test: sweetness and savor (ice cream); conditions: 0.00001 w/w%, 10 panellers
Protocol: Compound 2 of the flavone derivative (I) was used as a taste modifier. Ice cream containing 5 w/w% of sugar, 12 w/w% of fructose condensed milk and 10 w/w% of thick malt syrup as sweetening agents was used as a control. The control and ice cream containing 0.00001 w/w% of the flavone derivative (I) were made by a general method. Sensory tests for the sweetness and the savor were conducted by 10 trained panellers comprised of 6 males and 4 females at the age from 20 to 40.

[5] = Sensory test: stimulative smell associated with acetic acid and viscosity (toothpaste with karaya gum); conditions: 0.0000001 part by weight of Compound 3 to 1 part, 9 panellers
Protocol: Sorbitol was heated to 70°C, followed by adding sodium saccharine and silica slowly thereto and by stirring well. Then, water previously heated to 70°C, karaya gum, sodium lauryl sulfate and sodium hydroxide were added sequentially while stirring. Finally, flavor was added thereto to prepare toothpaste as a control. Alternatively, flavone derivative (I)-containing toothpaste was prepared by adding 0.0000001 part by weight of Compound 3 of the flavone derivative (I) to 1 part by weight of similarly prepared toothpaste.
Sensory tests for obtained toothpaste were conducted by 9 panellers comprised of 6 males and 3 females.

[6] = Five points evaluation test: saltiness and brackish taste modifying effect, salt / sodium L-glutamate solution; conditions: average points of 5 panellers (2: no changes); for Saltiness Modifying Effect: Salt
Protocol: Compound 3 of the flavone derivative (I) was used as a taste modifier. […] Alternatively, sample solutions were prepared by adding 1, 0.1, 0.01 ppm of Compound 3 to the standard solutions, respectively.
Sensory tests were conducted by 5 trained panellers to examine saltiness modifying effect (so called saltiness adapting effect) and brackish taste modifying effect.
Each sample solution was evaluated assuming that the standard solution has the point of 2.

[7] = Sensory test: sweetness and savor (sponge cake); conditions: 22 w/w% white sugar, 0.0001 w/w%, 10 panellers
Protocol: Compound 4 of the flavone derivative (I) was used as a taste modifier and 22 w/w% of white sugar was used as a sweetening agent. In accordance with a general method, sponge cake containing 0.0001 w/w% of the flavone derivative (I) and flavone derivative (I) free sponge cake were prepared. Sensory tests for the sweetness and the savor were conducted by 10 panellers comprised of 6 males and 4 females at the age from 20 to 40.

[8] = Sensory test: enhancing the sourness (refreshing drink); conditions: 0.0002 (g) Compound 4, vs control, 8 panellers
Protocol: Compound 4 of the flavone derivative (I) was used as a taste modifier. Raw materials described below were mixed and stirred to dissolve. The solution was heated up to 93°C, immediately transmitted to a bottle and sealed. Then, it was cooled in water, thereby preparing refreshing drink having compositions as follows. A control was prepared by eliminating the compound 4 from the raw materials.
Sensory tests of obtained refreshing drink were carried out by 8 panellers.

[9] = Sensory test: stimulative smell associated with acetic acid (mayonnaise); conditions: 0.001 mg of Compound 8 added, 9 panellers
Protocol: Compound 8 of the flavone derivative (I) was used as a taste modifier. First, sugar, sodium glutamate and carrageenan were dissolved in water, followed by adding raw vinegar, salt and yolk. Then, corn salad oil was added portionwise while stirring, and emulsified by the use of colloid mill, thereby preparing mayonnaise as a control. Alternatively, flavone derivative (I)-containing mayonnaise was prepared by adding 0.001 mg of Compound 8 to mayonnaise that was similarly prepared.
Sensory tests for obtained mayonnaise were conducted by 9 panellers comprised of 6 males and 3 females.

3,3',4',5,5',6,7,8-octamethoxyflavone [Compound 11]
Value of enhancing the sourness Ascending system [1]: 125
Value of enhancing the sourness Descending system [1]: 128
Continuity of refreshness: Those who sensed H additive is better [2]: 8 number of people
Continuity of refreshness: Those who sensed no difference [2]: 0 number of people
Quality of taste: Those who sensed H additive is better [2]: 6 number of people
Quality of taste: Those who sensed no difference [2]: 2 number of people
Refreshness: Those who sensed H additive is better [2]: 7 number of people
Refreshness: Those who sensed no difference [2]: 1 number of people
Body: Those who sensed no difference [3]: 2 number of people
Body: Those who sensed the flavone derivative (I) additive is better [3]: 6 number of people
Deliciousness: Those who sensed no difference [3]: 1 number of people
Deliciousness: Those who sensed the flavone derivative (I) additive is better [3]: 7 number of people
Quality of taste: Those who sensed no difference [3]: 1 number of people
Quality of taste: Those who sensed the flavone derivative (I) additive is better [3]: 7 number of people

COc1ccc(-c2cc(=O)c3c(OC)c(OC)c(OC)c(OC)c3o2)cc1OC [Compound 2, 3',4',5,6,7,8-hexamethoxyflavone]
Value of enhancing the sourness Ascending system [1]: 118
Value of enhancing the sourness Descending system [1]: 123
the sweetness and the savor, as sensed by all the panellers [4]: better than that of the control

COc1ccc(-c2cc(=O)c3c(OC)c(OC)c(OC)c(OC)c3o2)cc1 [Compound 3, 4',5,6,7,8-pentamethoxyflavone]
Value of enhancing the sourness Ascending system [1]: 120
Value of enhancing the sourness Descending system [1]: 123
Stimulative smell: Those who sensed no difference [5]: 1 number of people
Stimulative smell: Those who sensed the flavone derivative (I) additive is reduced [5]: 8 number of people
Brackish Taste Modifying Effect ([6]; 0.01 ppm, Salt 1 %): 3.6
Brackish Taste Modifying Effect ([6]; 0.01 ppm, Salt 3 %): 3.6
Brackish Taste Modifying Effect ([6]; 0.01 ppm, Salt 5 %): 3.4
Brackish Taste Modifying Effect ([6]; 0.01 ppm, Salt 10 %): 3.0
Saltiness Modifying Effect ([6]; 0.01 ppm, sodium L-glutamate 1 %): 3.6
Saltiness Modifying Effect ([6]; 0.01 ppm, sodium L-glutamate 3 %): 3.8
Saltiness Modifying Effect ([6]; 0.01 ppm, sodium L-glutamate 5 %): 3.4
Saltiness Modifying Effect ([6]; 0.01 ppm, sodium L-glutamate 10 %): 3.0
Brackish Taste Modifying Effect ([6]; 0.10 ppm, Salt 1 %): 4.0
Brackish Taste Modifying Effect ([6]; 0.10 ppm, Salt 3 %): 3.8
Brackish Taste Modifying Effect ([6]; 0.10 ppm, Salt 5 %): 3.6
Brackish Taste Modifying Effect ([6]; 0.10 ppm, Salt 10 %): 3.4
Saltiness Modifying Effect ([6]; 0.10 ppm, sodium L-glutamate 1 %): 4.0
Saltiness Modifying Effect ([6]; 0.10 ppm, sodium L-glutamate 3 %): 3.8
Saltiness Modifying Effect ([6]; 0.10 ppm, sodium L-glutamate 5 %): 3.6
Saltiness Modifying Effect ([6]; 0.10 ppm, sodium L-glutamate 10 %): 3.4
Brackish Taste Modifying Effect ([6]; 1.00 ppm, Salt 1 %): 4.4
Brackish Taste Modifying Effect ([6]; 1.00 ppm, Salt 3 %): 4.0
Brackish Taste Modifying Effect ([6]; 1.00 ppm, Salt 5 %): 4.0
Brackish Taste Modifying Effect ([6]; 1.00 ppm, Salt 10 %): 3.8
Saltiness Modifying Effect ([6]; 1.00 ppm, sodium L-glutamate 1 %): 4.4
Saltiness Modifying Effect ([6]; 1.00 ppm, sodium L-glutamate 3 %): 4.0
Saltiness Modifying Effect ([6]; 1.00 ppm, sodium L-glutamate 5 %): 4.0
Saltiness Modifying Effect ([6]; 1.00 ppm, sodium L-glutamate 10 %): 3.8

COc1ccc(-c2cc(=O)c3c(OC)cc(OC)c(OC)c3o2)cc1OC [Compound 4, 3',4',5,7,8-pentamethoxyflavone]
Value of enhancing the sourness Ascending system [1]: 117
Value of enhancing the sourness Descending system [1]: 119
the sweetness and the savor, as sensed by all the panellers [7]: better than that of the control
quality of taste [8]: significantly improved
taste of fruit juice and the sourness [8]: stronger than the control

COc1ccc(-c2cc(=O)c3c(OC)cc(OC)cc3o2)cc1 [Compound 8, 4',5,7-trimethoxyflavone]
Value of enhancing the sourness Ascending system [1]: 118
Value of enhancing the sourness Descending system [1]: 120
Stimulative smell: Those who sensed difference exists [9]: 7 number of people
Stimulative smell: Those who sensed no difference [9]: 2 number of people
